# Laboratory results reported in paper PMC9578392, “Safety, Tolerability, and Pharmacokinetics of the Novel Antiviral Agent Ensitrelvir Fumaric Acid, a SARS-CoV-2 3CL Protease Inhibitor, in Healthy Adults” (Antimicrobial Agents and Chemotherapy, 2022).
# Experiment: Treatment-emergent adverse events, single dose (part 1)
# Assay type: in vivo, human
# Method: In part 1, Japanese participants were randomized to receive placebo or single dose of ensitrelvir (20, 70, 250, 500, 1,000, and 2,000 mg given to cohorts A, B, C, D, E, and J, respectively), suspended in 0.5% methylcellulose, in the fasted state. Additionally, in cohort C, the effect of food on the pharmacokinetics of ensitrelvir was investigated in a 2-group, 2-period crossover design by administering placebo or ensitrelvir (250 mg) in the fasted or fed (high-fat/high-calorie) state. In part 2, Japanese participants were randomized to receive placebo or multiple doses of ensitrelvir, suspended in 0.5% methylcellulose. The multiple-dose regimens were as follows: once-daily doses of ensitrelvir 375 mg on day 1 and 125 mg on days 2 to 5 (cohort F), or 750 mg on day 1 and 250 mg on days 2 to 6 (cohort G) in the fasted state. White participants were randomized to receive placebo or multiple doses of ensitrelvir. The multiple-dose regimens were as follows: once-daily doses of ensitrelvir 375 mg on day 1 and 125 mg on days 2 to 5 (cohort H). Each cohort included 11 participants. In cohort G, the effect of ensitrelvir on the pharmacokinetics of midazolam (syrup) was evaluated in an open label self-controlled crossover design. Midazolam 2 mg alone was administered 2 days prior to initiating ensitrelvir administration (on day −2) and midazolam was coadministered on day 6 with placebo or ensitrelvir in the fasted state to participants following once-daily doses for 5 days of placebo (days 1 to 5) or ensitrelvir (750 mg on day 1 and 250 mg on days 2–5).
# The nature, frequency, and severity of TEAEs were evaluated and recorded.
# [1] = Cohort A 20 mg single dose, n = 6
# [2] = Cohort B 70 mg single dose, n = 6
# [3] = Cohort C (fasted) 250 mg single dose, n = 8
# [4] = Cohort D 500 mg single dose, n = 6
# [5] = Cohort E 1,000 mg single dose, n = 6
# [6] = Cohort J 2,000 mg single dose, n = 6
smiles,measurement,setting,value
"Cn1cnc(Cn2c(=O)[nH]/c(=N\c3cc4cn(C)nc4cc3Cl)n(Cc3cc(F)c(F)cc3F)c2=O)n1 [Ensitrelvir, ensitrelvir fumaric acid]","Abdominal pain, Events",[1],0
same,"Abdominal pain, n (%)",[1],0
same,"Chills, Events",[1],0
same,"Chills, n (%)",[1],0
same,"Feces soft, Events",[1],0
same,"Feces soft, n (%)",[1],0
same,"Gastrointestinal disorders, Events",[1],0
same,"Gastrointestinal disorders, n (%)",[1],0
same,"General disorders and administration site conditions, Events",[1],0
same,"General disorders and administration site conditions, n (%)",[1],0
same,"Headache, Events",[1],0
same,"Headache, n (%)",[1],0
same,"High density lipoprotein cholesterol decreased, Events",[1],0
same,"High density lipoprotein cholesterol decreased, n (%)",[1],0
same,"Investigations, Events",[1],0
same,"Investigations, n (%)",[1],0
same,"Nausea, Events",[1],0
same,"Nausea, n (%)",[1],0
same,"Nervous system disorders, Events",[1],0
same,"Nervous system disorders, n (%)",[1],0
same,"Participants with any TEAE, Events",[1],0
same,"Participants with any TEAE, n (%)",[1],0
same,"Vomiting, Events",[1],0
same,"Vomiting, n (%)",[1],0
same,"Abdominal pain, Events",[2],1
same,"Abdominal pain, n (%)",[2],1 (16.7)
same,"Chills, Events",[2],0
same,"Chills, n (%)",[2],0
same,"Feces soft, Events",[2],0
same,"Feces soft, n (%)",[2],0
same,"Gastrointestinal disorders, Events",[2],1
same,"Gastrointestinal disorders, n (%)",[2],1 (16.7)
same,"General disorders and administration site conditions, Events",[2],0
same,"General disorders and administration site conditions, n (%)",[2],0
same,"Headache, Events",[2],1
same,"Headache, n (%)",[2],1 (16.7)
same,"High density lipoprotein cholesterol decreased, Events",[2],0
same,"High density lipoprotein cholesterol decreased, n (%)",[2],0
same,"Investigations, Events",[2],0
same,"Investigations, n (%)",[2],0
same,"Nausea, Events",[2],0
same,"Nausea, n (%)",[2],0
same,"Nervous system disorders, Events",[2],1
same,"Nervous system disorders, n (%)",[2],1 (16.7)
same,"Participants with any TEAE, Events",[2],2
same,"Participants with any TEAE, n (%)",[2],2 (33.3)
same,"Vomiting, Events",[2],0
same,"Vomiting, n (%)",[2],0
same,"Abdominal pain, Events",[3],0
same,"Abdominal pain, n (%)",[3],0
same,"Chills, Events",[3],0
same,"Chills, n (%)",[3],0
same,"Feces soft, Events",[3],0
same,"Feces soft, n (%)",[3],0
same,"Gastrointestinal disorders, Events",[3],0
same,"Gastrointestinal disorders, n (%)",[3],0
same,"General disorders and administration site conditions, Events",[3],0
same,"General disorders and administration site conditions, n (%)",[3],0
same,"Headache, Events",[3],0
same,"Headache, n (%)",[3],0
same,"High density lipoprotein cholesterol decreased, Events",[3],0
same,"High density lipoprotein cholesterol decreased, n (%)",[3],0
same,"Investigations, Events",[3],0
same,"Investigations, n (%)",[3],0
same,"Nausea, Events",[3],0
same,"Nausea, n (%)",[3],0
same,"Nervous system disorders, Events",[3],0
same,"Nervous system disorders, n (%)",[3],0
same,"Participants with any TEAE, Events",[3],0
same,"Participants with any TEAE, n (%)",[3],0
same,"Vomiting, Events",[3],0
same,"Vomiting, n (%)",[3],0
same,"Abdominal pain, Events",[4],0
same,"Abdominal pain, n (%)",[4],0
same,"Chills, Events",[4],0
same,"Chills, n (%)",[4],0
same,"Feces soft, Events",[4],0
same,"Feces soft, n (%)",[4],0
same,"Gastrointestinal disorders, Events",[4],0
same,"Gastrointestinal disorders, n (%)",[4],0
same,"General disorders and administration site conditions, Events",[4],0
same,"General disorders and administration site conditions, n (%)",[4],0
same,"Headache, Events",[4],0
same,"Headache, n (%)",[4],0
same,"High density lipoprotein cholesterol decreased, Events",[4],0
same,"High density lipoprotein cholesterol decreased, n (%)",[4],0
same,"Investigations, Events",[4],0
same,"Investigations, n (%)",[4],0
same,"Nausea, Events",[4],0
same,"Nausea, n (%)",[4],0
same,"Nervous system disorders, Events",[4],0
same,"Nervous system disorders, n (%)",[4],0
same,"Participants with any TEAE, Events",[4],0
same,"Participants with any TEAE, n (%)",[4],0
same,"Vomiting, Events",[4],0
same,"Vomiting, n (%)",[4],0
same,"Abdominal pain, Events",[5],0
same,"Abdominal pain, n (%)",[5],0
same,"Chills, Events",[5],0
same,"Chills, n (%)",[5],0
same,"Feces soft, Events",[5],0
same,"Feces soft, n (%)",[5],0
same,"Gastrointestinal disorders, Events",[5],0
same,"Gastrointestinal disorders, n (%)",[5],0
same,"General disorders and administration site conditions, Events",[5],0
same,"General disorders and administration site conditions, n (%)",[5],0
same,"Headache, Events",[5],0
same,"Headache, n (%)",[5],0
same,"High density lipoprotein cholesterol decreased, Events",[5],6
same,"High density lipoprotein cholesterol decreased, n (%)",[5],6 (100)
same,"Investigations, Events",[5],6
same,"Investigations, n (%)",[5],6 (100)
same,"Nausea, Events",[5],0
same,"Nausea, n (%)",[5],0
same,"Nervous system disorders, Events",[5],0
same,"Nervous system disorders, n (%)",[5],0
same,"Participants with any TEAE, Events",[5],6
same,"Participants with any TEAE, n (%)",[5],6 (100)
same,"Vomiting, Events",[5],0
same,"Vomiting, n (%)",[5],0
same,"High density lipoprotein cholesterol decreased, n (%)","Cohort E 1,000 mg single dose, n = 6, listed as ensitrelvir",6/6
same,"Abdominal pain, Events",[6],0
same,"Abdominal pain, n (%)",[6],0
same,"Chills, Events",[6],1
same,"Chills, n (%)",[6],1 (16.7)
same,"Feces soft, Events",[6],1
same,"Feces soft, n (%)",[6],1 (16.7)
same,"Gastrointestinal disorders, Events",[6],3
same,"Gastrointestinal disorders, n (%)",[6],1 (16.7)
same,"General disorders and administration site conditions, Events",[6],1
same,"General disorders and administration site conditions, n (%)",[6],1 (16.7)
same,"Headache, Events",[6],1
same,"Headache, n (%)",[6],1 (16.7)
same,"High density lipoprotein cholesterol decreased, Events",[6],6
same,"High density lipoprotein cholesterol decreased, n (%)",[6],6 (100)
same,"Investigations, Events",[6],6
same,"Investigations, n (%)",[6],6 (100)
same,"Nausea, Events",[6],1
same,"Nausea, n (%)",[6],1 (16.7)
same,"Nervous system disorders, Events",[6],1
same,"Nervous system disorders, n (%)",[6],1 (16.7)
same,"Participants with any TEAE, Events",[6],11
same,"Participants with any TEAE, n (%)",[6],6 (100)
same,"Vomiting, Events",[6],1
same,"Vomiting, n (%)",[6],1 (16.7)
same,"High density lipoprotein cholesterol decreased, n (%)","Cohort J 2,000 mg single dose, n = 6, listed as ensitrelvir",6/6
same,overall tolerability,"single and multiple doses, all doses tested, healthy participants",well tolerated across all doses tested
same,severity of adverse events,"single dose 20–2,000 mg, cohorts A–E and J",a All adverse events were mild.
